Consider three compounds from paper PMC9266004, “Potential Common Mechanisms of Cytotoxicity Induced by Amide Herbicides via TRPA1 Channel Activation” (International Journal of Environmental Research and Public …, 2022).

For series [1], the target named is hTRPA1 ARD recombinant protein (Homo sapiens, UniProt O75762). Put plainly: LSPR binding analysis (OpenSPR, COOH chip). Particulars: for kon: read-out: association constant (ka); for koff: read-out: dissociation constant (kd). As for the experimental part: The binding capacity of hTRPA1 ARD recombinant protein and AHs was determined by LSPR according to the OpenSPR (Nicoya Life Sciences, Kitchener, ON, Canada) operating procedure using the COOH chip. After the baseline signal was obtained, the sample was washed with 200 µL 80% isopropyl alcohol for 10 s, and 200 µL ethylcarbodiimide/N-hydroxysuccinimide solution was added. The sample loop was rinsed with phosphate-buffered saline (PBS). hTRPA1 (5 µL) was diluted with PBS, incubated for 4 min, and 200 µL blocking solution was added. […] Contact and dissociation time of analytes and protein were 240 s and 160 s, respectively. TraceDrawer software was applied to determine the association constant (ka), dissociation constant (kd), and affinity constant (KD) using a 1:1 model.

The subject of a further series is TRPA1-KO A549 cells. Put plainly: CCK-8 cell viability assay in TRPA1-KO A549 cells. In kind it is cell-based, human. Particulars: for IC50: Homo sapiens, TRPA1-KO A549 cells, 24 h treatment, CCK-8, read-out: IC50 values of AHs, TRPA1-KO A549 Cells; for viability of TRPA1-KO A549 cells compared with AHs-treated WT cells: KO of TRPA1, AHs 150, 300, 600 μM. As for the experimental part: The hTRPA1 gene sequence (Gene ID: 8989) was obtained from the National Center for Biotechnology Information (NCBI) website (https://www.ncbi.nlm.nih.gov/gene/8989 accessed on 26 May 2022). Three gRNA sequences, namely, T1: 5′-[…]-[…], T16: 5′-[…]-3′, and T20: 5′-[…]-3′, were designed using the CRISPR online design tool (http://crispr.mit.edu/ accessed on 26 May 2022). Transfection of cells with gRNA-Cas9 was validated in test cells. Cell pool examination was performed using Sanger sequencing. Sequencing and tracer analysis were performed using the online tool TIDE (https://tide-calculator.nki.nl/ accessed on 26 May 2022) to investigate the cleavage efficiency of T1, T16, and T20. Cells from the cell pool were diluted in 96-well plates. Clones were observed under a microscope and wells containing single cell clones were labeled. Single cell clones were transferred to 24-well plates for expansion. Validation of knockout (KO) clones was performed via sequencing to confirm insertion and deletion on the genomes of KO clone candidates. Furthermore, mycoplasmas were detected for cloned cells with high KO using the Mycoplasma PCR Detection Kit.
Wild-type (WT) and TRPA1-KO A549 cells were cultured in McCoy’s 5A Media and F-12K Nutrient Mixture containing 10% fetal bovine serum, respectively. WT/TRPA1-KO A549 cells (5 × 10^4 cells/mL) were seeded in 96-well (100 μL/well) and 6-well (2 mL/well) plates and incubated at 37 °C with 5% CO2 in a humidified incubator for 24 h. WT/TRPA1-KO A549 cells were treated with AHs gradient concentrations (0, 150, 300, 600, 1200 μM) prepared in methanol (1.2 M) for 24 h. Additionally, WT/TRPA1-KO A549 cells were pre-treated with TRPA1 special inhibitor HC-030031 (100 μM) for 0.5 h and then treated with AHs gradient concentrations for 24 h.
To conduct the cell viability assay, the growth medium was removed from WT/TRPA1-KO A549 cells cultured in a 96-well plate. CCK-8 reagent was mixed with complete medium (1:9 volume ratio), and 100 µL of the CCK-8 reagent mixture was added to each well. The plate was incubated for 4 h and the absorbance was measured at 450 nm using a microplate reader (BNR05740; Molecular Devices, Sunnyvale, CA, USA). The average absorbance from each sextuplicate set of wells was calculated and the background control value was subtracted from each absorbance value. The percentage cell viability was determined using the following equation:cell viability (%) = [(As − Ab)/(Ac − Ab)] × 100% where As is the absorbance of the experimental well (containing medium, CCK-8 reagent, cells, and compound); Ac is the absorbance of the control well (containing medium, CCK-8 reagent, and cells); and Ab is the absorbance of the blank well (containing medium and CCK-8 reagent).
A general note: Tetrazolium dyes change colour on reduction, which living cells bring about.

The next series deals with zebrafish embryos. The note with it: cited from earlier work.

The structures appear in SMILES notation.

Sequence of hTRPA1 ARD recombinant protein (O75762 62-609): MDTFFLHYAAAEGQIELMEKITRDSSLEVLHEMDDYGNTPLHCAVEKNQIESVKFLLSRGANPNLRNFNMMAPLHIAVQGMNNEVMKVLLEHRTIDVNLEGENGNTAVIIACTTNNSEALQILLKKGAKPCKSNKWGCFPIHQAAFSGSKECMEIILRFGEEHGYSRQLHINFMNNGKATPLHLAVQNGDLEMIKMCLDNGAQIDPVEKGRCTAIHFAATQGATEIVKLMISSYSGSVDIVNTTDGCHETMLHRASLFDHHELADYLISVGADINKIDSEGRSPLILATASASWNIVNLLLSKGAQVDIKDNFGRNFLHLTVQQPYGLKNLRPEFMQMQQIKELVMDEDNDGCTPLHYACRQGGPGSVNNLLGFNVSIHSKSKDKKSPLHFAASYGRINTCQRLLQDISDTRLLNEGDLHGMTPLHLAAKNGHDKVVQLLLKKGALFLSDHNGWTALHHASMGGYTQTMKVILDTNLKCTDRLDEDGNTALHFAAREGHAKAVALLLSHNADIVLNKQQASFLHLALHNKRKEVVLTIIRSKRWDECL

As to `CCc1cccc(C)c1N(C(=O)CCl)C(C)COC` (stereo not shown) [Metolachlor, metolachlor], in series [1], the Kd was found to be 364 µM, the kon was 112 M⁻¹ s⁻¹ and the koff was 0.0408 s⁻¹. For the same compound, in the series on TRPA1-KO A549 cells, the IC50 is 562 µM and the “viability of TRPA1-KO A549 cells compared with AHs-treated WT cells” value (shortened to “viability … compared with AHs-treated WT cells”) is recorded as “significantly increased the viability”.
With `CCCOCCN(C(=O)CCl)c1c(CC)cccc1CC` [Pretilachlor, pretilachlor], in the series on zebrafish embryos, the toxic effects result was “endocrine disorder, cell apoptosis, and immunotoxicity”. In addition, the Kd in series [1] stood at 309 µM. In series [1] (1:1 model, TraceDrawer), the “association constant (ka)” value was determined as 14.3 M⁻¹ s⁻¹ and the “dissociation constant (kd)” value came out at 0.00443 s⁻¹. In addition, in the series with TRPA1-KO A549 cells, the IC50 is 3670 µM and the “viability … compared with AHs-treated WT cells” value is “significantly increased the viability”.
On to `CCC(=O)Nc1ccc(Cl)c(Cl)c1` [Propanil, propanil], for which, in series [1], the Kd stood at 16.2 µM, the kon was determined as 2390 M⁻¹ s⁻¹ and the koff was found to be 0.0388 s⁻¹. In addition, in the series with TRPA1-KO A549 cells, the IC50 was determined as 2560 µM and the “viability … compared with AHs-treated WT cells” value is listed as “significantly increased the viability”.

The term Kd denotes the free concentration of one partner at which half of the binding sites on the other are occupied at equilibrium, for simple one-to-one binding. For orientation: IC50 means the midpoint of a concentration-inhibition curve.
